Laboratory results published in US20250236608A1, “EGFR INHIBITORS” (Blueprint Medicines Corporation, priority 2022, published 2025).

Columns and labels:
EGFR (d746-750) = EGFR (d746-750) (Homo sapiens (Human), UniProt P00533, DEL746-750); assay: Biochemical EGFR inhibition assay, EGFR (d746-750); conditions: Caliper mobility shift; 1.0 mM ATP or ATP Km; read-out: Enz EGFR_Exon19-del746-750 IC50
[1] = target: pEGFR (Tyr1068) in PC-9 cells (Ex19Del) (Homo sapiens (Human), UniProt P00533, DEL746-750); assay: PC-9 pEGFR AlphaLISA assay; assay type: cell-based; conditions: 4 hours incubation, p-EGFR (Tyr1068) AlphaLISA, read-out: Ext pEGFR_PC-9 Ex19Del IC50
pEGFR (Tyr1068) in PC-9 cells (Ex19Del), sequence (P00533 other isoform, or with tags, fused parts or gaps del 746-750): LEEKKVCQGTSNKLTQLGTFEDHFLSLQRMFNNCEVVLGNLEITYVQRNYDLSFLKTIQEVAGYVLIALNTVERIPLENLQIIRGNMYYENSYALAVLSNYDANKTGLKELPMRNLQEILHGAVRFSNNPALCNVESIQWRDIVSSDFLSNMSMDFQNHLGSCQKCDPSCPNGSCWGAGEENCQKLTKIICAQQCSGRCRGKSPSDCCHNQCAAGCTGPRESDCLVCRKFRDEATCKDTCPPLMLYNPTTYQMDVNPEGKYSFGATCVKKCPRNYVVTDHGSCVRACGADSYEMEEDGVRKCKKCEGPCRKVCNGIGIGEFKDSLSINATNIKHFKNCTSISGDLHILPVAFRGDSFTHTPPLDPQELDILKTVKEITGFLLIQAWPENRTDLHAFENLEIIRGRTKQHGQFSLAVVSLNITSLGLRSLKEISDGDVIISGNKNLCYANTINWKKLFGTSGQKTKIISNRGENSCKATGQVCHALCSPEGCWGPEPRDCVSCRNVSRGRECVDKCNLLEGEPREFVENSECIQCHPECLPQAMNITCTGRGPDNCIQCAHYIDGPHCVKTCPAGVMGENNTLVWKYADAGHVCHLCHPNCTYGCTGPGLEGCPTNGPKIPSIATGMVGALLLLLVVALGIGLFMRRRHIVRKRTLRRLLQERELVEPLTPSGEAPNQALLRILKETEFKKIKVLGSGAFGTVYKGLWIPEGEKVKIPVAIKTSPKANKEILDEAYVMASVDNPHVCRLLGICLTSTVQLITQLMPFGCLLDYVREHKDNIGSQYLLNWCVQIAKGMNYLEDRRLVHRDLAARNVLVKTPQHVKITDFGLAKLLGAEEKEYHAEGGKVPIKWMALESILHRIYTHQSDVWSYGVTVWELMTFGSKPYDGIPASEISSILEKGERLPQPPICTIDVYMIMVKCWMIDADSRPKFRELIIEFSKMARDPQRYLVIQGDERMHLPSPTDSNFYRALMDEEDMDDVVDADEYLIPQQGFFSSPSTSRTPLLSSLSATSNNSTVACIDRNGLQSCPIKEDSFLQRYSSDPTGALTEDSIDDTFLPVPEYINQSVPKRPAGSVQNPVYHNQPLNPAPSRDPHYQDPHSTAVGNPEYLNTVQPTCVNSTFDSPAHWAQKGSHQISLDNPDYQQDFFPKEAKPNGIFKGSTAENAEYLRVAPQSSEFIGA
Procedure, shortened: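 Cells seeded in phenol-free DMEM with 10% FBS adhered overnight at 37° C./5% CO2, then were exposed for 4 hours to a 4-fold, 10-point compound dilution series. After lysis, phospho-EGFR was read by AlphaLISA SureFire Ultra, and IC50 was fitted from percent inhibition versus log concentration.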

EGFR L858R = EGFR L858R (Homo sapiens (Human), UniProt P00533, L858R); assay: Biochemical EGFR inhibition assay, EGFR L858R; conditions: Caliper mobility shift; 1.0 mM ATP or ATP Km; read-out: Enz EGFR_L858R IC50
EGFR L858R, sequence (P00533 25-1210 L858R): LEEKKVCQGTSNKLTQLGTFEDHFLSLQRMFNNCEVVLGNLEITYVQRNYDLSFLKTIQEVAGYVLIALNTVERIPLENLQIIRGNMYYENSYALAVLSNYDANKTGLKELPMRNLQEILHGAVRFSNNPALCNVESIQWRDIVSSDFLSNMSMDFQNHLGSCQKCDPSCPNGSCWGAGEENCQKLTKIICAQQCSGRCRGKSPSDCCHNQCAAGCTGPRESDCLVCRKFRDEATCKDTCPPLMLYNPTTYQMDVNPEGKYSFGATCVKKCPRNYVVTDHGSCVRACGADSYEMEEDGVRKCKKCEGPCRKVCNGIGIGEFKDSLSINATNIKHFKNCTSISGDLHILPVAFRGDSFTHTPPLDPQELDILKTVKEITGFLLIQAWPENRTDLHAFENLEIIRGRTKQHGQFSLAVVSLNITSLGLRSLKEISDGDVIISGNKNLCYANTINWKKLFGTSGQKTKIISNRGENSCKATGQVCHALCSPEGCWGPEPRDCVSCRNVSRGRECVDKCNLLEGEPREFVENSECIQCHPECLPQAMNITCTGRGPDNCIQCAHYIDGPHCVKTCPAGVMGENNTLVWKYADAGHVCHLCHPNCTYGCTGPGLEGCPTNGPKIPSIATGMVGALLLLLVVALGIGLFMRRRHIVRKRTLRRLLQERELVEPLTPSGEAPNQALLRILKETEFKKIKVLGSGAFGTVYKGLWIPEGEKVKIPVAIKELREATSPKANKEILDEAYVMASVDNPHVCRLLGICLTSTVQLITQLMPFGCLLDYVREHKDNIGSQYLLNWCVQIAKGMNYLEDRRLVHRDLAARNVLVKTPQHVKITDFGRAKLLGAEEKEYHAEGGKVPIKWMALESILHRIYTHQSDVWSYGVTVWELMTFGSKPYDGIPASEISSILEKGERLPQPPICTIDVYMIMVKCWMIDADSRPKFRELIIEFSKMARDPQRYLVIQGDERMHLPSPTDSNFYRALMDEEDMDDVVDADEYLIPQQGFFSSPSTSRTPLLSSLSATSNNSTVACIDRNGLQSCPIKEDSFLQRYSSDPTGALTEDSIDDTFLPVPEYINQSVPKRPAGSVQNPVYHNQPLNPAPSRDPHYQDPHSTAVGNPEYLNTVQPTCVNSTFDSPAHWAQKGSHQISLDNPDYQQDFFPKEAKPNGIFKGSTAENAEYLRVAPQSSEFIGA

EGFR (d746-750), sequence (P00533 other isoform, or with tags, fused parts or gaps del 1-694/del 746-750 limits assumed): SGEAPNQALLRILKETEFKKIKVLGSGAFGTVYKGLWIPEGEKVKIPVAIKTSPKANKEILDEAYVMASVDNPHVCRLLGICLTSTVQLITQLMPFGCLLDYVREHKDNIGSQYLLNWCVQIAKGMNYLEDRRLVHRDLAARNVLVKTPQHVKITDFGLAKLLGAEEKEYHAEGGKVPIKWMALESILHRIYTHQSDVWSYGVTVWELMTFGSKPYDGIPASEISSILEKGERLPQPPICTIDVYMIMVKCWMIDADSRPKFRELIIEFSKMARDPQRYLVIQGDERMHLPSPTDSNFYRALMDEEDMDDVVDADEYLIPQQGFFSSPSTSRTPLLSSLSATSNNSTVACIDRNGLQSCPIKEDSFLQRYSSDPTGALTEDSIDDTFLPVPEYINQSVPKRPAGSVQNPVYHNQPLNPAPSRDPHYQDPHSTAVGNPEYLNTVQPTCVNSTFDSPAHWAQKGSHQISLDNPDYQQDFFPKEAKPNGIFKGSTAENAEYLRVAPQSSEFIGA

How did the IC50 (EGFR (d746-750)) turn out when `COc1cc2ncnc(-c3cn(C)nc3-c3ccccc3)c2cc1NC(=O)C1CCN1` (stereo not drawn) [Example 228, N-(7-methoxy-4-(1-methyl-3-phenyl-1H-pyrazol-4-yl)quinazolin-6-yl)azetidine-2-carboxamide] was run?
The IC50 was 1.7 nM.

What about the IC50 [1] of the same compound?
The IC50 was 5.6 nM.

What about the IC50 (EGFR L858R) of the same compound?
The IC50 was 2.8 nM.

`CCOc1cc2ncnc(-c3cn(C)nc3-c3ccc(F)cc3)c2nc1NC(=O)[C@]12C[C@H]1CN(C)C2` (single isomer, unassigned) [Example 376, (1R,5R)—N-(7-ethoxy-4-(3-(4-fluorophenyl)-1-methyl-1H-pyrazol-4-yl)pyrido[3,2-d]pyrimidin-6-yl)-3-methyl-3-azabicyclo[3.1.0]hexane-1-carboxamide or (1S,5S)—N-(7-ethoxy-4-(3-(4-fluorophenyl)-1-methyl-1H-pyrazol-4-yl)pyrido[3,2-d]pyrimidin-6-yl)-3-methyl-3-azabicyclo[3.1.0]hexane-1-carboxamide] was tested. Which IC50 (EGFR (d746-750)) did it give?
Its IC50 is 0.4 nM.

What about the IC50 [1] of the same compound?
The IC50 was 2.7 nM.

And the IC50 (EGFR L858R)?
Its IC50 is 1.3 nM.

How did the IC50 (EGFR (d746-750)) turn out when `COc1cc2ncnc(-c3cn(C)nc3-c3ccccc3)c2cc1O[C@@H]1CN(C)C[C@@H]1F` [Example 5, 6-(((3R,4S)-4-fluoro-1-methylpyrrolidin-3-yl)oxy)-7-methoxy-4-(1-methyl-3-phenyl-1H-pyrazol-4-yl)quinazoline] was run?
The IC50 was 2 nM.

What about the IC50 [1] of the same compound?
The IC50 was 4.6 nM.

And the IC50 (EGFR L858R)?
Its IC50 is 3 nM.

With `CCn1cc(-c2ncnc3cc(OC(F)F)c(NC(=O)C4CC4)cc23)c(-c2ccccc2)n1` [Example 302, N-(7-(difluoromethoxy)-4-(1-ethyl-3-phenyl-1H-pyrazol-4-yl)quinazolin-6-yl)cyclopropanecarboxamide] as the compound, how does the IC50 (EGFR (d746-750)) read?
Its IC50 is 0.7 nM.

What about the IC50 [1] of the same compound?
The IC50 was 1.6 nM.

What about the IC50 (EGFR L858R) of the same compound?
The IC50 was 1.4 nM.

What does the source list for `COc1cc2ncnc(-c3cn(C)nc3-c3ccccc3)c2cc1OC(=O)N1CCN(C)CC1C` (stereo not drawn) [Example 57, 7-methoxy-4-(1-methyl-3-phenyl-1H-pyrazol-4-yl)quinazolin-6-yl 2,4-dimethylpiperazine-1-carboxylate]?
IC50 (EGFR (d746-750)): 1.7 nM; IC50 [1]: 2.2 nM; IC50 (EGFR L858R): 2.3 nM

How did the IC50 (EGFR (d746-750)) turn out when `COc1cc2ncnc(-c3cn(C)nc3-c3ccccc3)c2cc1NC(=O)c1cc2n(n1)CCCC2` [Example 225, N-(7-methoxy-4-(1-methyl-3-phenyl-1H-pyrazol-4-yl)quinazolin-6-yl)-4,5,6,7-tetrahydropyrazolo[1,5-a]pyridine-2-carboxamide] was run?
Its IC50 is 9 nM.

And the IC50 [1]?
The IC50 was 5.1 nM.

And the IC50 (EGFR L858R)?
The IC50 was 14 nM.

With `COc1cc2ncnc(-c3cn(C)nc3-c3ccccc3)c2nc1NC(=O)c1ccc(F)cc1` [Example 312, 4-fluoro-N-(7-methoxy-4-(1-methyl-3-phenyl-1H-pyrazol-4-yl)pyrido[3,2-d]pyrimidin-6-yl)benzamide] as the compound, how does the IC50 (EGFR (d746-750)) read?
The IC50 was 3.2 nM.

What about the IC50 [1] of the same compound?
Its IC50 is 8.8 nM.

And the IC50 (EGFR L858R)?
The IC50 was 6.9 nM.

`COc1cc2ncnc(-c3cn(C4CC4)nc3-c3ccccc3)c2nc1NC(=O)c1cnn(C(F)(F)F)c1` [Example 365, N-(4-(1-cyclopropyl-3-phenyl-1H-pyrazol-4-yl)-7-methoxypyrido[3,2-d]pyrimidin-6-y1)-1-(trifluoromethyl)-1H-pyrazole-4-carboxamide] was tested. Which IC50 (EGFR (d746-750)) did it give?
Its IC50 is 0.9 nM.

What about the IC50 [1] of the same compound?
Its IC50 is 2 nM.

What about the IC50 (EGFR L858R) of the same compound?
The IC50 was 1.8 nM.

Which results are given for `Cc1nnc([C@H](C)Oc2nc3c(-c4cn(C)nc4-c4ccccc4)ncnc3cc2OC2CC2)o1` (single isomer, unassigned) [Example 477, 2-[(1R)-1-{[7-cyclopropoxy-4-(1-methyl-3-phenyl-1H-pyrazol-4-yl)pyrido[3,2-d]pyrimidin-6-yl]oxy}ethyl]-5-methyl-1,3,4-oxadiazole or 2-[(1S)-1-{[7-cyclopropoxy-4-(1-methyl-3-phenyl-1H-pyrazol-4-yl)pyrido[3,2-d]pyrimidin-6-yl]oxy}ethyl]-5-methyl-1,3,4-oxadiazole]?
IC50 (EGFR (d746-750)): 9 nM; IC50 [1]: 25 nM; IC50 (EGFR L858R): 7.7 nM

With `CN(C)CCOc1cc2ncnc(-c3cn(C)nc3-c3ccccc3)c2nc1NC(=O)C12COCC1C2` (stereo not drawn) [Example 435, N-(7-(2-(dimethylamino)ethoxy)-4-(1-methyl-3-phenyl-1H-pyrazol-4-yl)pyrido[3,2-d]pyrimidin-6-yl)-3-oxabicyclo[3.1.0]hexane-1-carboxamide] as the compound, how does the IC50 (EGFR (d746-750)) read?
The IC50 was 3.1 nM.

And the IC50 [1]?
Its IC50 is 9.7 nM.

What about the IC50 (EGFR L858R) of the same compound?
The IC50 was 25.8 nM.

`CCOc1cc2ncnc(-c3cn(C)nc3-c3ccccc3)c2cc1OC(=O)N1CCN(C)C[C@@H]1C` [Example 96, 7-ethoxy-4-(1-methyl-3-phenyl-1H-pyrazol-4-yl)quinazolin-6-yl(S)-2,4-dimethylpiperazine-1-carboxylate] was tested. Which IC50 (EGFR (d746-750)) did it give?
The IC50 was 1.1 nM.

What about the IC50 [1] of the same compound?
The IC50 was 1.9 nM.

What about the IC50 (EGFR L858R) of the same compound?
Its IC50 is 1.6 nM.

Which results are given for `COc1cc2ncnc(-c3cn(C)nc3-c3ccccc3)c2cc1OC(=O)N1C[C@H](C)N(C)C[C@@H]1C` [Example 97, 7-methoxy-4-(1-methyl-3-phenyl-1H-pyrazol-4-yl)quinazolin-6-yl (2S,5S)-2,4,5-trimethylpiperazine-1-carboxylate]?
IC50 (EGFR (d746-750)): 4.9 nM; IC50 [1]: 12.4 nM; IC50 (EGFR L858R): 7.8 nM

How did the IC50 (EGFR (d746-750)) turn out when `COc1cc2ncnc(-c3cn(C)nc3-c3ccccc3)c2cc1NC(=O)[C@@H]1CCCN1C` (single isomer, unassigned) [Example 243, (R)—N-(7-methoxy-4-(1-methyl-3-phenyl-1H-pyrazol-4-yl)quinazolin-6-yl)-1-methylpyrrolidine-2-carboxamide or (S)—N-(7-methoxy-4-(1-methyl-3-phenyl-1H-pyrazol-4-yl)quinazolin-6-yl)-1-methylpyrrolidine-2-carboxamide] was run?
The IC50 was 2.4 nM.

And the IC50 [1]?
The IC50 was 4.4 nM.

And the IC50 (EGFR L858R)?
The IC50 was 4.9 nM.

With `COc1cc2ncnc(-c3cn(C)nc3-c3ccccc3)c2nc1NC(=O)c1ccccc1F` [Example 359, 2-fluoro-N-(7-methoxy-4-(1-methyl-3-phenyl-1H-pyrazol-4-yl)pyrido[3,2-d]pyrimidin-6-yl)benzamide] as the compound, how does the IC50 (EGFR (d746-750)) read?
Its IC50 is 0.7 nM.

And the IC50 [1]?
The IC50 was 1.6 nM.

And the IC50 (EGFR L858R)?
Its IC50 is 1.6 nM.

`COc1cc2ncnc(-c3cn(C)nc3-c3ccccc3)c2nc1O[C@@H](C)c1cn(C)nn1` [Example 44, (S)-7-methoxy-6-(1-(1-methyl-1H-1,2,3-triazol-4-yl)ethoxy)-4-(1-methyl-3-phenyl-1H-pyrazol-4-yl)pyrido[3,2-d]pyrimidine] was tested. Which IC50 (EGFR (d746-750)) did it give?
The IC50 was 2.4 nM.

What about the IC50 [1] of the same compound?
The IC50 was 14.6 nM.

And the IC50 (EGFR L858R)?
Its IC50 is 3.9 nM.

`COc1cc2ncnc(-c3cn(C)nc3-c3ccccc3)c2cc1C(C)O` (stereo not drawn) [Example 100, 1-(7-methoxy-4-(1-methyl-3-phenyl-1H-pyrazol-4-yl)quinazolin-6-yl)ethan-1-ol] was tested. Which IC50 (EGFR (d746-750)) did it give?
Its IC50 is 2 nM.

What about the IC50 [1] of the same compound?
Its IC50 is 7.6 nM.

And the IC50 (EGFR L858R)?
The IC50 was 2.9 nM.

Which results are given for `COc1cc2ncnc(-c3cn(C)nc3-c3ccccc3)c2cc1NC(=O)[C@H](C)CN(C)C` (single isomer, unassigned) [Example 239, (R)-3-(dimethylamino)-N-(7-methoxy-4-(1-methyl-3-phenyl-1H-pyrazol-4-yl)quinazolin-6-yl)-2-methylpropanamide or (S)-3-(dimethylamino)-N-(7-methoxy-4-(1-methyl-3-phenyl-1H-pyrazol-4-yl)quinazolin-6-yl)-2-methylpropanamide]?
IC50 (EGFR (d746-750)): 1.7 nM; IC50 [1]: 4 nM; IC50 (EGFR L858R): 4.1 nM

Which results are given for `COc1cc2ncnc(-c3cnn(CC(F)F)c3-c3ccc(F)cc3)c2cc1C1(O)CC1` [Example 490]?
IC50 (EGFR (d746-750)): 237 nM; IC50 [1]: 836 nM; IC50 (EGFR L858R): 82 nM

Which results are given for `CCOc1cc2ncnc(-c3cn(C)nc3-c3ccccc3)c2cc1N1CC2CC(C1)O2` [Example 167, 3-(7-ethoxy-4-(1-methyl-3-phenyl-1H-pyrazol-4-yl)quinazolin-6-yl)-6-oxa-3-azabicyclo[3.1.1]heptane]?
IC50 (EGFR (d746-750)): 1.1 nM; IC50 [1]: 1.7 nM; IC50 (EGFR L858R): 1.9 nM
